The test system of test [1] is Wistar male rats. As to the kind of experiment: Measurement of antihypertensive effect in vivo: blood pressure via carotid cannula after oral dosing. To be noted: rat. The procedure:
Wistar male rats were used. Three days prior to administration of a drug, a cannula (PE-50, Becton, Dickinson and Company, Japan) filled with heparin physiological saline (200 U/mL, Ajinomoto Pharmaceuticals Co., Ltd.) was inserted and placed in the common carotid artery under anesthesia with intraperitoneal administration of 60 mg/kg of pentobarbital. The other end of the cannula was exposed to the back neck through the subcutaneous. After the recovery period, the placed cannula was connected to a pressure transducer (Life Kit DTS DX-100, Nihon Kohden Corporation) to record the blood pressure waveform through a Polygraph (AP-641G, Nihon Kohden Co., Ltd.) and PowerLab (ML870 PowerLab8/30 (AD Instruments Japan)). The heart rate was calculated using a heart rate measuring unit (AT-601G, Nihon Kohden Co., Ltd.). After stabilization of the blood pressure, the drug was orally administered to measure the blood pressure and the heart rates. The test compounds were administered by appropriately adding N,N-dimethylformamide, Polyethylene Glycol 400, TWEEN 80, a 0.5% aqueous methylcellulose solution, and a 0.5 M aqueous sodium bicarbonate solution, and 0.1 M hydrochloric acid therein according to the compounds and dissolving it.
The results from the measurement according to Test Example 3 are shown below according to the following criteria with a maximum value of the mean blood pressure reduction. A: <20 mmHg, B: 20 to 40 mmHg, and C: >40 mmHg

For test [2], the target named is human purified sGC (Homo sapiens (Human), UniProt Q02108+Q02153). Kind of test: Measurement of sGC activation (enzyme): cGMP produced by human purified sGC, HTRF. Particulars: concentration giving 50% of maximum activation, maximum activation of Example 102 taken as 100%. The format is biochemical. The procedure: The activity of sGC was evaluated by measuring the amount of a cyclic guanosine monophosphate (cGMP) which is produced by human purified sGC.
A test compound was dissolved in DMSO and diluted 20-fold with ultrapure water. 2 μL of the diluted test compound solution (maximum concentration 100 μM), 2 μL of a substrate solution [0.5 μM TEBA, 0.03 μM dithiothreitol, 0.01 μM GTP, 0.04 μM MgCl2, and 0.03 μM sodium nitroprusside (SNP)], and 6 μL of a human enzyme suspension were added to 384-well plates (manufactured by Greiner Bio-One), and incubated at room temperature for one hour. The quantitative determination of cGMP is using HTRF which based on the competition between sample cGMP and fluorescent dye labeled cGMP for binding to a cGMP-specific antibody.
The test results of some Example compounds that are the compounds of the formula (I) of the present invention are shown below. The sGC activation of the test compound was calculated by taking the activation when the compound was not added as 100%. As compared with the activation when the compound was not added, it was recognized that a compound having a sGC activation of more than 300% has sGC activation. In addition, in Tables, Ex represents Example number in which the test compound is described and the sGC activation [%] represents sGC activation (%).
Furthermore, the EC50 [μM] value was calculated as another parameter for expressing sGC activation. This parameter indicates the concentration of the evaluated compound giving 50% of a maximum activation, which is calculated based on the maximum activation that compound of Example 102 is added, which is taken as 100%. In this connection, when a known sGC activator, YC-1 (Lificiguat, [5-(1-benzyl-1H-indazol-3-yl)-2-furyl]methanol), was evaluated according to the above Test Example 1, its maximum activation was 52% of the maximum activation for compound of Example 102. Further, “−” means no evaluation.

Molecules are shown by their SMILES.

Chain of human purified sGC (Q02153 whole entry): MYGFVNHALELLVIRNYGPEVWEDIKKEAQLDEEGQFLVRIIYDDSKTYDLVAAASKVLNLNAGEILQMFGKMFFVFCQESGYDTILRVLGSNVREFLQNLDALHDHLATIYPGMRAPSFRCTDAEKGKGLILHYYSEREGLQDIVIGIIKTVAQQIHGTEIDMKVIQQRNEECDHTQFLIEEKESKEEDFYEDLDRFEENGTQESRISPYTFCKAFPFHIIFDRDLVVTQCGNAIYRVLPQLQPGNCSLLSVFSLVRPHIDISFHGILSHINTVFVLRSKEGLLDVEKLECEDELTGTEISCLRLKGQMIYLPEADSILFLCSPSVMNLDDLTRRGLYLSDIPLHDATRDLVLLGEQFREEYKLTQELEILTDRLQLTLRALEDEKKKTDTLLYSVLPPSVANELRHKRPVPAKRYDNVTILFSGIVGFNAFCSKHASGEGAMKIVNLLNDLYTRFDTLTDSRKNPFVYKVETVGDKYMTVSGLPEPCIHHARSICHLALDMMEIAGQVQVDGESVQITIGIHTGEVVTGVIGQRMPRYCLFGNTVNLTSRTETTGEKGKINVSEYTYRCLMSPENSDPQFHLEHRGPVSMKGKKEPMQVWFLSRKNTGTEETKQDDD
Chain of human purified sGC (Q02108 whole entry): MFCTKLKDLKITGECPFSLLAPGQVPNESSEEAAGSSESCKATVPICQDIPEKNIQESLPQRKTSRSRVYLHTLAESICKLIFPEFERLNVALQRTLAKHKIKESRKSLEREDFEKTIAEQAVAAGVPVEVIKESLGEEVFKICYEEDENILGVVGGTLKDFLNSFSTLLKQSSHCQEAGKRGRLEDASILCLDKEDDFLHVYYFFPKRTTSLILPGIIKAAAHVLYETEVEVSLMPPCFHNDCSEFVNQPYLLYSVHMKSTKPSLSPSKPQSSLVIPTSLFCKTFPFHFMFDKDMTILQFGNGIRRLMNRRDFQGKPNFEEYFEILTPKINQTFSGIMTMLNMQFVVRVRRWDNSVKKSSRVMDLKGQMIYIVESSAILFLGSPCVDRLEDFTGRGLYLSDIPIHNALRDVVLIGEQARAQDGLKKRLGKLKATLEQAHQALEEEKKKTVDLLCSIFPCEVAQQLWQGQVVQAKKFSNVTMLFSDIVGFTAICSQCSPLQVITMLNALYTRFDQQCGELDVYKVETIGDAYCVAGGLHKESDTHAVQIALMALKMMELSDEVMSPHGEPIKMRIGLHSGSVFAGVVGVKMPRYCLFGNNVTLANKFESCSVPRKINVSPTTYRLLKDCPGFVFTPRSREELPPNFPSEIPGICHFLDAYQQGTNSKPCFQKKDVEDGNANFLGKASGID

On to `Cc1ccc(C(CO)(CO)NC(=O)c2c(C)nc3c(OCc4c(F)cccc4F)cccn23)cc1` [Ex 827], for which the “Blood pressure reduction (maximum value of the mean blood pressure reduction)” value (from here on “Blood pressure reduction”) in test [1] (10 mg/kg po) is listed as “B (B: 20 to 40 mmHg)”.
Regarding `Cc1nc2c(OCc3c(F)cccc3F)cccn2c1C(=O)N[C@@H]1c2ccccc2C[C@@H]1O.Cl` [Ex 431], in test [1] (10 mg/kg po), the “Blood pressure reduction” value is “B (B: 20 to 40 mmHg)”.
What is called EC50 is the midpoint of the concentration-response curve. A higher EC50 goes with a less potent agent. `Cc1nc2c(OCc3c(F)cccc3F)cccn2c1C(=O)N[C@@H]1c2ccccc2C[C@H]1C(=O)O` [Ex 434] displayed an EC50 in test [2] of 7.3 µM. Besides, in test [1] (30 mg/kg po), the “Blood pressure reduction” value is “C (C: >40 mmHg)”.

For the origin of these results see US9447090B2, “Imidazopyridine compounds” (Astellas Pharma Inc., priority 2011, dated 2016).
